Test results taken from PMC10687119, “Quaternary Ammonium Salts of Cationic Lipopeptides with Lysine Residues — Synthesis, Antimicrobial, Hemolytic and Cytotoxic Activities” (Probiotics and Antimicrobial Proteins, 2023).
≈ marks a conversion by molar mass, not a printed value.

How the values were obtained:
[1] = test system: C. glabrata ATCC 15126; format: cell-based, Candida glabrata; conditions: ATCC 15126, 24 h
Experimental: (§1) The Acinetobacter baumannii ATCC BAA-1605, Enterococcus faecium ATCC 700221, Klebsiella aerogenes ATCC 13048, Klebsiella pneumoniae ATCC 700603, Pseudomonas aeruginosa ATCC 9027, Staphylococcus aureus ATCC 33591, Candida glabrata ATCC 15126 strains were acquired from the American Type Culture Collection (ATCC, Manassas, USA). All the strains were stored at −80 °C in Roti-Store cryo vials (Carl Roth GmbH, Germany) and before the tests were transferred into fresh Mueller–Hinton broth (MHB, Becton Dickinson, Poland) for bacteria or RPMI-1640 (Sigma-Aldrich, Germany) for fungi and incubated for 24 h at 37 °C. Then, the cultures were cultured on the Mueller–Hinton agar (BioMaxima, Poland) or Sabouraud dextrose agar (SDA, BioMaxima) plates, respectively, and incubated as just mentioned. For microbiological assays, a minimum of three to five well-isolated colonies of the same morphological type were carefully picked from the agar cultures. These colonies were transferred with sterile loop into fresh microbiological medium and incubated with shaking (100 rpm) at 37 °C until they reached logarithmic phase of growth. Cell densities for all assays were adjusted through spectrophotometric measurements (Multiskan GO Microplate Spectrophotometer, Thermo Fisher Scientific, Finland) at 600 and 530 nm for bacteria and fungi, respectively.
(§2) The MICs were determined by broth microdilution method according to the Clinical and Laboratory Standard Institute guidelines. For this purpose, initial inoculums of bacteria (5 × 10^5 CFU/mL) in MHB and yeasts (2 × 10^3 CFU/mL) in RPMI-1640 with 2% D-glucose were exposed to the ranging concentration of lipopeptides (1–512 μg/mL) and incubated at 37 °C for 18 h and 24 h, respectively. The experiments were conducted on 96-well microtiter polystyrene plates (Kartell, Italy). The growth was assessed visually after incubation and the MIC was assumed as the lowest peptide concentration at which a noticeable growth of microorganisms was inhibited. Benzalkonium chloride (Sigma-Aldrich, Germany) was used as reference compound. All experiments were conducted in triplicate.

[2] = test system: S. aureus ATCC 33591; format: cell-based, Staphylococcus aureus; conditions: ATCC 33591, 18 h
Experimental: as §1, §2

[3] = test system: P. aeruginosa ATCC 9027; format: cell-based, Pseudomonas aeruginosa; conditions: ATCC 9027, 18 h
Experimental: as §1, §2

[4] = test system: K. aerogenes ATCC 13048; format: cell-based, Klebsiella aerogenes; conditions: ATCC 13048, 18 h
Experimental: as §1, §2

[5] = test system: K. pneumoniae ATCC 700603; format: cell-based, Klebsiella pneumoniae; conditions: ATCC 700603, 18 h
Experimental: as §1, §2

[6] = test system: human red blood cells (RBCs); format: cell-based; conditions: red cells of human
Experimental: The hemolysis assay was conducted using a procedure described previously. For this purpose, human red blood cells (RBCs) isolated from K2EDTA Single Donor Human Whole blood (Innovative Research, Inc, MI, USA) were rinsed with Phosphate-buffer saline (PBS, pH 7.4±0.05, composition - KCl 2.7 mM, NaCl 140 mM, phosphate 10mM; AppliChem GmbH, Germany) by centrifugation for 10 min at 800 × g. This process was repeated 3 times and the RBCs were resuspended in PBS. Then, the stock solution of RBCs was added to the serial dilution of lipopeptides on 96-well polystyrene plates to reach a final volume of 100 μL with a 4% concentration of erythrocytes (v/v) and a concentration range of 1-512 μg/mL of tested compounds. The control wells for 0% and 100% hemolysis consisted of RBCs suspended in PBS and 1% of Triton X-100 (Sigma-Aldrich, Germany), respectively. Benzalkonium chloride (Sigma-Aldrich, Germany) was used as reference compound. Subsequently, the plates were incubated for 60 min at 37 °C and then centrifuged at 800 × g for 10 min at 4 °C (Sorvall ST […] Centrifuge, Thermo Scientific). The supernatant was carefully […] to new microtiter plates. The release of hemoglobin was monitored absorbance measurements at 540 nm (MultiskanTM GO Microplate Spectrophotometer, Thermo Scientific). All experiments were conducted in triplicate. HC50 was calculated using an ic50.tk tool.

[7] = test system: human keratinocyte cell line (HaCaT); format: cell-based; conditions: 24 h
Experimental: The immortalized human keratinocyte cell line (HaCaT), obtained from CLS (Cell Line Service, Germany) was cultured in DMEM-high glucose (Dulbecco’s Modified Eagle Medium) supplemented with 10% fetal bovine serum, 2 mM L-glutamine, 100 U/mL penicillin and 100 μg/mL streptomycin (Sigma-Aldrich; Merck KGaA) at 37 °C in a humidified atmosphere with 5% CO2. Cells were trypsinized, and the medium was renewed 2–3 times per week. The cytotoxicity of compounds was assessed by colorimetric CellTilter 96® Aqueous One Solution Cell Proliferation Assay (Promega, USA), containing a tetrazolium compound according to the manufacturer’s instructions. In brief, 7 × 10^3 HaCaT cells per well were plated on 96-well plates and incubated per night to adhere to the cultured dishes. After that time, different concentrations of the tested compounds ranging from 512 to 1 μg/mL were applied to the wells. Every compound was medium-soluble at 37 °C; thus, the non-treated cells were negative control. Serial dilutions of the tested compounds were always prepared before use. Cells were incubated with drugs for 24 h, and then, 20 μL of the CellTiter 96®AqueousOne Solution Reagent was added to each well containing treated cells in 100 µl of culture medium. After 4 h of incubation at 37 °C, the absorbance at 490 nm was recorded using a microplate reader (Epoch, BioTek Instruments, USA). The quantity of formazan product as measured by the amount of 490 nm absorbance is directly proportional to the number of living cells in culture. Benzalkonium chloride (Sigma-Aldrich, Germany) was used as reference compound. At least three independent experiments with two replicates were conducted for each concentration of a compound, and the IC50 values were calculated using GraphPad Prism 8 software.

[8] = test system: A. baumannii ATCC BAA 1605; format: cell-based, Acinetobacter baumannii; conditions: ATCC BAA 1605, 18 h
Experimental: as §1, §2

[9] = test system: E. faecium ATCC 700221; format: cell-based, Enterococcus faecium; conditions: ATCC 700221, 18 h
Experimental: as §1, §2

SMILES	MIC [1] [µg/mL]	MIC [2] [µg/mL]	MIC [3] [µg/mL]	MIC [4] [µg/mL]	MIC [5] [µg/mL]	HC50 [6] [µg/mL]	IC50 [7] [µg/mL]	MIC [8] [µg/mL]	MIC [9] [µg/mL]
CCCCCCCCCCCCCC(=O)N[C@@H](CCCC[N+](C)(C)C)C(N)=O [Peptide 1Mq, C14-K(Me3)^+-NH2]	32	32	128	256	>512	88.25 ± 1.57	24.81 ± 3.88	128	32
CCCCCCCCCCCCCCCC(=O)N[C@@H](CCCC[N+](C)(C)C)C(N)=O [Peptide 1Pq, C16-K(Me3)^+-NH2]	8	16	>512	256	512	32.21 ± 1.97	19.25 ± 9.34	64	16
CCCCCCCCCCCCCC(=O)N[C@@H](CCCCN)C(=O)N[C@@H](CCCCN)C(N)=O [Peptide 2M, C14-KK-NH2]	256 (≈ 529 µM)	16 (≈ 33.1 µM)	128 (≈ 265 µM)	512 (≈ 1060 µM)	>512	345.21 ± 12.80	32.49 ± 4.84 (≈ 67.2 µM)	512 (≈ 1060 µM)	32 (≈ 66.2 µM)
CCCCCCCCCCCCCC(=O)N[C@@H](CCCC[N+](C)(C)C)C(=O)N[C@@H](CCCC[N+](C)(C)C)C(N)=O [Peptide 2Mq, C14-K(Me3)^+K(Me3)^+-NH2]	512	128	>512	>512	>512	>512	258.90 ± 35.07	>512	128
CCCCCCCCCCCCCCCC(=O)N[C@@H](CCCC[N+](C)(C)C)C(=O)N[C@@H](CCCC[N+](C)(C)C)C(N)=O [Peptide 2Pq, C16-K(Me3)^+K(Me3)^+-NH2]	64	16	512	512	512	133.32 ± 6.27	99.62 ± 9.65	128	16
CCCCCCCCCCCCCCCCCC(=O)N[C@@H](CCCC[N+](C)(C)C)C(=O)N[C@@H](CCCC[N+](C)(C)C)C(N)=O [Peptide 2Sq, C18-K(Me3)^+K(Me3)^+-NH2]	16	8	>512	64	128	22.42 ± 0.98	78.57 ± 5.49	64	16
CCCCCCCCCCCCCC(=O)N[C@@H](CCCCN)C(=O)N[C@@H](CCCCN)C(=O)N[C@@H](CCCCN)C(N)=O [Peptide 3M, C14-KKK-NH2]	512 (≈ 837 µM)	64 (≈ 105 µM)	128 (≈ 209 µM)	256 (≈ 418 µM)	>512	>512	237.60 ± 31.18 (≈ 388 µM)	512 (≈ 837 µM)	32 (≈ 52.3 µM)
CCCCCCCCCCCCCC(=O)N[C@@H](CCCC[N+](C)(C)C)C(=O)N[C@@H](CCCC[N+](C)(C)C)C(=O)N[C@@H](CCCC[N+](C)(C)C)C(N)=O [Peptide 3Mq, C14-K(Me3)^+K(Me3)^+K(Me3)^+-NH2]	>512	>512	>512	>512	>512	>512	>512	>512	256
CCCCCCCCCCCCCCCC(=O)N[C@@H](CCCC[N+](C)(C)C)C(=O)N[C@@H](CCCC[N+](C)(C)C)C(=O)N[C@@H](CCCC[N+](C)(C)C)C(N)=O [Peptide 3Pq, C16-K(Me3)^+K(Me3)^+K(Me3)^+-NH2]	>512	256	>512	512	>512	>512	>512	>512	32
CCCCCCCCCCCCCCCCCC(=O)N[C@@H](CCCC[N+](C)(C)C)C(=O)N[C@@H](CCCC[N+](C)(C)C)C(=O)N[C@@H](CCCC[N+](C)(C)C)C(N)=O [Peptide 3Sq, C18-K(Me3)^+K(Me3)^+K(Me3)^+-NH2]	128	64	512	64	256	385.50 ± 71.51	474.64 ± 29.06	128	16
